Measurements: article PMC12621043, “Un-LOK-ing a New Approach for Conformational Selective Targeting of STK10 (LOK)” (ACS Medicinal Chemistry Letters, 2025)

Legend:
BMP2KA = target: T1, BMP2KA (Homo sapiens, UniProt Q9NSY1); experiment: DSF Tm panel; assay type: binding; settings: 10 μM compound
T1 construct: purchased in-house DSF kinase panel (SGC-style construct names; the trailing letter is the construct ID)

STK10 [1] = target: T2, STK10 (Homo sapiens, UniProt O94804); experiment: DSF Tm panel; assay type: binding; settings: 10 μM compound
T2 construct: purchased in-house DSF kinase panel (SGC-style construct names; the trailing letter is the construct ID)

BMX (BMXA) = target: T3, BMX (BMXA) (Homo sapiens, UniProt P51813); experiment: DSF Tm panel; assay type: binding; settings: 10 μM compound
T3 construct: purchased in-house DSF kinase panel (SGC-style construct names; the trailing letter is the construct ID)

K2A2 (CSNK2A2A) = target: T4, K2A2 (CSNK2A2A) (Homo sapiens, UniProt P19784); experiment: DSF Tm panel; assay type: binding; settings: 10 μM compound
T4 construct: purchased in-house DSF kinase panel (SGC-style construct names; the trailing letter is the construct ID)

PAK4A = target: T5, PAK4A (Homo sapiens, UniProt O96013); experiment: DSF Tm panel; assay type: binding; settings: 10 μM compound
T5 construct: purchased in-house DSF kinase panel (SGC-style construct names; the trailing letter is the construct ID)

PLK4A = target: T6, PLK4A (Homo sapiens, UniProt O00444); experiment: DSF Tm panel; assay type: binding; settings: 10 μM compound
T6 construct: purchased in-house DSF kinase panel (SGC-style construct names; the trailing letter is the construct ID)
T6 sequence (O00444 2-275): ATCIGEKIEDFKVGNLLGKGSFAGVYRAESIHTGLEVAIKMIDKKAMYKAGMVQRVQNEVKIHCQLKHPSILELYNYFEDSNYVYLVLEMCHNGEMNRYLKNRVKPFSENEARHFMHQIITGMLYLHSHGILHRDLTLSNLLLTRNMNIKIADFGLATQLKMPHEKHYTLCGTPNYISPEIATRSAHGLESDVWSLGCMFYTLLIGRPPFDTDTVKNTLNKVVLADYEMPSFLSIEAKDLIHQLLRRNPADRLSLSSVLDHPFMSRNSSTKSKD

TTKA = target: T7, TTKA (Homo sapiens, UniProt P33981); experiment: DSF Tm panel; assay type: binding; settings: 10 μM compound
T7 construct: purchased in-house DSF kinase panel (SGC-style construct names; the trailing letter is the construct ID)
T7 sequence (P33981 519-808): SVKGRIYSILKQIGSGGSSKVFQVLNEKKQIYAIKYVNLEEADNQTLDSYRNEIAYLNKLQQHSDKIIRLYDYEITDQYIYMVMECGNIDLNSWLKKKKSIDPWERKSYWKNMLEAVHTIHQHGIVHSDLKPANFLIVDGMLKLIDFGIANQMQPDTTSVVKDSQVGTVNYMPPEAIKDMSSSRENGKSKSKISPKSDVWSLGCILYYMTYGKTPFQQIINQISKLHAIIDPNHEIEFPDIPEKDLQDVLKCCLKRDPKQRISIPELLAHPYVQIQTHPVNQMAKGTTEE

DYRK1AA = target: T8, DYRK1AA (Homo sapiens, UniProt Q13627); experiment: DSF Tm panel; assay type: binding; settings: 10 μM compound
T8 construct: purchased in-house DSF kinase panel (SGC-style construct names; the trailing letter is the construct ID)

CASKA = target: T9, CASKA (Homo sapiens, UniProt O14936); experiment: DSF Tm panel; assay type: binding; settings: 10 μM compound
T9 construct: purchased in-house DSF kinase panel (SGC-style construct names; the trailing letter is the construct ID)
T9 sequence (O14936 12-276): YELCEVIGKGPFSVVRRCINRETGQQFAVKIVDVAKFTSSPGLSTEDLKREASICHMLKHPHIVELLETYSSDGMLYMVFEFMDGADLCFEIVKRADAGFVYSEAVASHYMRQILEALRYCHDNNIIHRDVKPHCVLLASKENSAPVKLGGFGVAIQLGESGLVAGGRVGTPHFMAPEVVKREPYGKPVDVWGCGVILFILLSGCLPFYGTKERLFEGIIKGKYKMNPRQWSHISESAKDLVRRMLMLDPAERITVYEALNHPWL

MAPK9A = target: T10, MAPK9A (Homo sapiens, UniProt P45984); experiment: DSF Tm panel; assay type: binding; settings: 10 μM compound
T10 construct: purchased in-house DSF kinase panel (SGC-style construct names; the trailing letter is the construct ID)

PIM1 (PIM1A) = target: T11, PIM1 (PIM1A) (Homo sapiens, UniProt P11309); experiment: DSF Tm panel; assay type: binding; settings: 10 μM compound
T11 construct: purchased in-house DSF kinase panel (SGC-style construct names; the trailing letter is the construct ID)

NEK1A = target: T12, NEK1A (Homo sapiens, UniProt Q96PY6); experiment: DSF Tm panel; assay type: binding; settings: 10 μM compound
T12 construct: purchased in-house DSF kinase panel (SGC-style construct names; the trailing letter is the construct ID)
T12 sequence (Q96PY6 1-328): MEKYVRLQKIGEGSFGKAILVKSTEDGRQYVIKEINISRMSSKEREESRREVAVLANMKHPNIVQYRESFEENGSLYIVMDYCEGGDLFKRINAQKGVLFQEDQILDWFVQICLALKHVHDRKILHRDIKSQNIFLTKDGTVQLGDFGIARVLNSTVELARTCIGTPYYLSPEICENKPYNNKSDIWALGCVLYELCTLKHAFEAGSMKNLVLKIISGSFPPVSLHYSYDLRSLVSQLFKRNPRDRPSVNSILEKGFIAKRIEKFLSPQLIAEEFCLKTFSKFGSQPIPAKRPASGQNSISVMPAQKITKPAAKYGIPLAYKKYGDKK

STK10 [2] = target: T2, STK10; experiment: PhosphoSens in vitro activity assay; assay type: biochemical; settings: ATP 160 μM
SLK = SLK (Homo sapiens, UniProt Q9H2G2); experiment: DSF Tm panel; assay type: binding; design: purchased in-house DSF kinase panel (SGC-style construct names; the trailing letter is the construct ID); settings: 10 μM compound

T2 sequence (O94804 18-317 limits assumed): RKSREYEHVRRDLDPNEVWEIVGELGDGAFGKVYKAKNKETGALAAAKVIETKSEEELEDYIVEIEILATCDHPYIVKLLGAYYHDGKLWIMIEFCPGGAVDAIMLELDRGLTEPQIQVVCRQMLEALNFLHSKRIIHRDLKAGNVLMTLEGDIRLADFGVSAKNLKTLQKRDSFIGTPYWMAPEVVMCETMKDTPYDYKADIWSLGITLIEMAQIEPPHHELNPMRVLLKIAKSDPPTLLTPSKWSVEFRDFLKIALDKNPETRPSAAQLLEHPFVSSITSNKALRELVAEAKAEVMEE
T3 sequence (P51813 411-675): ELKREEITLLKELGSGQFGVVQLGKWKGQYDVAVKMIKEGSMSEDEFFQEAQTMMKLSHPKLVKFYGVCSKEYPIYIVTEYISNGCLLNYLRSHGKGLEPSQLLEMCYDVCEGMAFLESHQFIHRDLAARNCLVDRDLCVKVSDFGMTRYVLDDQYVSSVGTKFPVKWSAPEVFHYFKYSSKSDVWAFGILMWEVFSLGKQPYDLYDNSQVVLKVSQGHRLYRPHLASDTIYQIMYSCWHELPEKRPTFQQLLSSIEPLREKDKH
T10 sequence (P45984 7-364): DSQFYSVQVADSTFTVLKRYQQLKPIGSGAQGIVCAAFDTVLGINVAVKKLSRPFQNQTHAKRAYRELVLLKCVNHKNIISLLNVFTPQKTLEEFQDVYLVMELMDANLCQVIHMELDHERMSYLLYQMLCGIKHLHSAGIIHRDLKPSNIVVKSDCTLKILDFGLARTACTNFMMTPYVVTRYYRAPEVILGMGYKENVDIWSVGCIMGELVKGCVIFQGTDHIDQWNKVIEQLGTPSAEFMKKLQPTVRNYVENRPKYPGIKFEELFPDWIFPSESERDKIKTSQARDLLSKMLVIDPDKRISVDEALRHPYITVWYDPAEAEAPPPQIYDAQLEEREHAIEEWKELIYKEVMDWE
T5 sequence (O96013 291-591): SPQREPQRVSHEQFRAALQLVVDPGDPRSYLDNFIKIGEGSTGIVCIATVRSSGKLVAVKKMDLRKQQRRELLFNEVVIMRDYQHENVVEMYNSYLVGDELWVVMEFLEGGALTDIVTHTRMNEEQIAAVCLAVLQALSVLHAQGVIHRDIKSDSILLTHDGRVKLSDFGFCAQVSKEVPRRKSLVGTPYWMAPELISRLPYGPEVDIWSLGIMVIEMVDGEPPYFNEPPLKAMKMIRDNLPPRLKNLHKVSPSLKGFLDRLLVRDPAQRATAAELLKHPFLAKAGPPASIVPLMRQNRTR
T11 sequence (P11309 whole entry): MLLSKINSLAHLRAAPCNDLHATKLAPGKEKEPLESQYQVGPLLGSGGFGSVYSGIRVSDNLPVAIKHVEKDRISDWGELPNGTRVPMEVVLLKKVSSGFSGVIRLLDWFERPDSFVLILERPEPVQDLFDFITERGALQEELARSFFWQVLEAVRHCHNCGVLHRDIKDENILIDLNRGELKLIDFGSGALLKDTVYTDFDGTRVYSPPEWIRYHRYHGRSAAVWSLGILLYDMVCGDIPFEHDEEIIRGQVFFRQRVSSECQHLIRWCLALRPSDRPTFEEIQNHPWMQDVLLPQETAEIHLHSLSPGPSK
T1 sequence (Q9NSY1 38-345): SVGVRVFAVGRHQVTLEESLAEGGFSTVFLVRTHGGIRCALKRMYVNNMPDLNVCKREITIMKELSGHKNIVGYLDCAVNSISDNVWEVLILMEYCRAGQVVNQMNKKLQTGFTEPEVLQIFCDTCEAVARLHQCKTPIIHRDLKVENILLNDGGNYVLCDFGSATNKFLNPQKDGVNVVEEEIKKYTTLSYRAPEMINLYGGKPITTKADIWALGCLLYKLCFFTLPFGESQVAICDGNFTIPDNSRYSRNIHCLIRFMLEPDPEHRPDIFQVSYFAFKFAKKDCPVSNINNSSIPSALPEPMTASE
T4 sequence (P19784 whole entry): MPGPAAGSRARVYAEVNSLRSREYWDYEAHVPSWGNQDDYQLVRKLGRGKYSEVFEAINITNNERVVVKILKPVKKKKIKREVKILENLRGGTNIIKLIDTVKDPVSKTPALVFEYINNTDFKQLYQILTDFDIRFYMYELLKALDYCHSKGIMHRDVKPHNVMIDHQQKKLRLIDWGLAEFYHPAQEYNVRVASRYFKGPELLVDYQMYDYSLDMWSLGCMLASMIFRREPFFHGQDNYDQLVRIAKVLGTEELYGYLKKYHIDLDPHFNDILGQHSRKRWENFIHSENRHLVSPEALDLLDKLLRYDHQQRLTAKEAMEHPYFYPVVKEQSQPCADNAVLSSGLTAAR

| Compound | ΔTm at 10 µM (BMP2KA) [°C] | ΔTm at 10 µM (STK10 [1]) [°C] | ΔTm at 10 µM (BMX (BMXA)) [°C] | ΔTm at 10 µM (K2A2 (CSNK2A2A)) [°C] | ΔTm at 10 µM (PAK4A) [°C] | ΔTm at 10 µM (PLK4A) [°C] | ΔTm at 10 µM (TTKA) [°C] | ΔTm at 10 µM (DYRK1AA) [°C] | ΔTm at 10 µM (CASKA) [°C] | ΔTm at 10 µM (MAPK9A) [°C] | ΔTm at 10 µM (PIM1 (PIM1A)) [°C] | ΔTm at 10 µM (NEK1A) [°C] | IC50 (STK10 [2]) [µM] | ΔTm at 10 µM (SLK) [°C] |
| --- | --- | --- | --- | --- | --- | --- | --- | --- | --- | --- | --- | --- | --- | --- |
| COc1cccc(CNC(=O)Nc2ccc3cc2OCCOCCNc2ccn4ncc-3c4n2)c1 [compound 30] | 9.8 | 7.1 | 0.4 | 0.8 | 1.5 | 3.5 | 1.6 | -0.4 | 0.9 | -1.9 | 1 | -0.2 | 6.29 ± 1.49 | 2.1 |
| COc1ccc(CNC(=O)Nc2ccc3cc2OCCOCCNc2ccn4ncc-3c4n2)cc1F [compound 32] | 10.9 | 7.6 | 1.1 | 2.2 | 2 | 4.6 | 2.4 | 0.6 | 1.7 | -0.6 | 1.7 | -0.4 | 3.33 ± 0.66 | 3.6 |
| COc1cc(CNC(=O)Nc2ccc3cc2OCCOCCNc2ccn4ncc-3c4n2)ccc1F [compound 33] | 10.2 | 6.7 | 0.3 | 1.7 | 2.2 | 5.5 | 2 | 0.9 | 0.9 | -1.2 | 1.6 | -0.1 | 2.34 ± 0.79 | 2.4 |
| C[C@H](NC(=O)Nc1ccc2cc1OCCOCCNc1ccn3ncc-2c3n1)c1ccccc1 [compound 34] | 9.1 | 5.6 | 0.1 | 1.2 | 1.4 | 4.7 | 1.8 | -0.1 | 1 | -2 | 0.6 | -0.4 | 10.2 | 1.6 |
